Data from patent US20060276464A1, “Diarylsulfone sulfonamides and use thereof” (Wyeth, priority 2005, published 2006).
Like-named read-outs stand apart in the source and are kept apart here.

Biological target: T1, SFRP-1 (Homo sapiens, UniProt Q8N474)
T1 sequence (Q8N474 32-314): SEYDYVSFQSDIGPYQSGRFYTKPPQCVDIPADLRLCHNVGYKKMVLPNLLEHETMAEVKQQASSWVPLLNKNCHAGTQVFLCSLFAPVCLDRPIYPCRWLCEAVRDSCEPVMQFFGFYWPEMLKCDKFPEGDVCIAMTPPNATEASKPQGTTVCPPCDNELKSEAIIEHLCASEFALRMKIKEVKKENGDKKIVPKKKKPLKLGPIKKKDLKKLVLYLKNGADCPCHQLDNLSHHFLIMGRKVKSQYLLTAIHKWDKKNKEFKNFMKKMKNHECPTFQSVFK
Experiment: Cell-based assay for in vitro measurement of SFRP-1/SARP2 antagonist activity (U2OS cells co-transfected with 16x TCF-tk-Luciferase reporter, Wnt and hSFRP-1);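 further: U2OS cells co-transfected with a TCF-tk luciferase reporter, a Wnt vector, hSFRP-1 or empty vector and CMV-βgal, luciferase luminescence read in cell lysates alongside βgal activity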
Conditions: for fold induction at 15 µM / fold induction at 20 µM / fold induction at 30 µM / fold induction at 10 µM: U2OS; for fold induction at 10 µM: read-out: Fold Induction with SFRP-1, U2OS cells, single dose 10 μM, luciferase reporter, fold induction over SFRP-1 control

[1] = read-out: Fold Induction with SFRP-1, Conc 15 μM, with SFRP-1, fold induction over SFRP-1 control, single dose
[2] = read-out: Fold Induction without SFRP-1, Conc 15 μM, without SFRP-1, single dose
[3] = read-out: Fold Induction with SFRP-1, Conc 20 μM, with SFRP-1, fold induction over SFRP-1 control, single dose
[4] = read-out: Fold Induction without SFRP-1, Conc 20 μM, without SFRP-1, single dose
[5] = read-out: Fold Induction with SFRP-1, Conc 30 μM, with SFRP-1, fold induction over SFRP-1 control, single dose
[6] = read-out: Fold Induction without SFRP-1, Conc 30 μM, without SFRP-1, single dose
[7] = read-out: Fold Induction with SFRP-1, Conc 15 μM, single dose, luciferase reporter, fold induction over SFRP-1 control, cells with SFRP-1
[8] = read-out: Fold Induction without SFRP-1, Conc 15 μM, single dose, luciferase reporter, cells without SFRP-1 (specificity control)

Compound | fold induction at 15 µM [1] | fold induction at 15 µM [2] | other results
Cc1ccc(S(=O)(=O)c2ccc(N3CCCCC3)cc2)cc1S(=O)(=O)NCCCn1ccnc1 [Example 312, N-[3-(1H-imidazol-1-yl)propyl]-2-methyl-5-[(4-piperidin-1-ylphenyl)sulfonyl]benzenesulfonamide] | 1.6 | 0.9 | 
Cc1ccc(S(=O)(=O)c2ccc(C)c(S(=O)(=O)NC[C@H](C)c3ccccc3)c2)cc1 [Example 254, 2-methyl-5-[(4-methylphenyl)sulfonyl]-N-[(2R)-2-phenylpropyl]benzenesulfonamide] |  |  | fold induction at 20 µM [3]: 3; fold induction at 20 µM [4]: 1
Cc1ccc(S(=O)(=O)c2ccc(F)cc2)cc1S(=O)(=O)NCC(O)c1ccccc1 (stereo not shown) [Example 387, 5-[(4-fluorophenyl)sulfonyl]-N-(2-hydroxy-2-phenylethyl)-2-methylbenzenesulfonamide] | 1.7 | 1.4 | 
Cc1ccc(S(=O)(=O)c2ccccc2)cc1S(=O)(=O)NCCc1ccc(S(N)(=O)=O)cc1 [Example 40, N-{2-[4-(aminosulfonyl)phenyl]ethyl}-2-methyl-5-(phenylsulfonyl)benzenesulfonamide] |  |  | fold induction at 30 µM [5]: 1.7; fold induction at 30 µM [6]: 0.9
Cc1ccc(S(=O)(=O)c2ccccc2)cc1S(=O)(=O)NC1CC(C)(C)NC(C)(C)C1 [Example 411, 2-methyl-5-(phenylsulfonyl)-N-(2,2,6,6-tetramethylpiperidin-4-yl)benzenesulfonamide] | 1.6 | 1 | 
Cc1ccc(S(=O)(=O)c2ccccc2)cc1S(=O)(=O)N[C@H]1C[C@@H]1c1ccccc1 [Example 247, 2-methyl-N-[(1S,2R)-2-phenylcyclopropyl]-5-(phenylsulfonyl)benzenesulfonamide] |  |  | fold induction at 20 µM [3]: 1.7; fold induction at 20 µM [4]: 0.9
Cc1ccc(S(=O)(=O)c2ccc(F)cc2)cc1S(=O)(=O)NCCC1CCOCC1 [Example 309, 5-[(4-fluorophenyl)sulfonyl]-2-methyl-N-(2-tetrahydro-2H-pyran-4-ylethyl)benzenesulfonamide] | 1.9 | 0.9 | 
COc1ccccc1CCNS(=O)(=O)c1cc(S(=O)(=O)c2ccc(C)cc2)ccc1C [Example 118, N-[2-(2-methoxyphenyl)ethyl]-2-methyl-5-[(4-methylphenyl)sulfonyl]benzenesulfonamide] |  |  | fold induction at 30 µM [5]: 1.3; fold induction at 30 µM [6]: 0.5
COCCCNS(=O)(=O)c1cc(S(=O)(=O)c2ccc(F)cc2)ccc1C [Example 173, 5-[(4-fluorophenyl)sulfonyl]-N-(3-methoxypropyl)-2-methylbenzenesulfonamide] | 2.5 | 0.8 | Fold Induction with SFRP-1 (Conc 15 μM, with SFRP-1, fold induction over SFRP-1 control, single dose): 2 fold; Fold Induction without SFRP-1 (Conc 15 μM, without SFRP-1, single dose): 1 fold
CCc1ccc(S(=O)(=O)c2ccc(F)cc2)cc1S(=O)(=O)NCC(O)c1ccccc1 (stereo not shown) [Example 388, 2-ethyl-5-[(4-fluorophenyl)sulfonyl]-N-(2-hydroxy-2-phenylethyl)benzenesulfonamide] | 2.2 | 1.1 | 
O=S(=O)(NCCc1ccccn1)c1cc(S(=O)(=O)c2ccccc2)ccc1Cl [Example 337, 2-chloro-5-(phenylsulfonyl)-N-(2-pyridin-2-ylethyl)benzenesulfonamide] | 2.6 | 1.1 | 
O=S(=O)(N[C@H]1C[C@@H]1c1ccccc1)c1cccc(S(=O)(=O)c2ccccc2)c1 [Example 259, N-[(1S,2R)-2-phenylcyclopropyl]-3-(phenylsulfonyl)benzenesulfonamide] |  |  | fold induction at 20 µM [3]: 1; fold induction at 20 µM [4]: 1.1
COc1ccc(S(=O)(=O)c2ccccc2)cc1S(=O)(=O)NCCCN(C)C [Example 239, N-[3-(dimethylamino)propyl]-2-methoxy-5-(phenylsulfonyl)benzenesulfonamide] | 1.2 | 1 | 
CC(C)c1ccc(S(=O)(=O)c2ccc(F)cc2)cc1S(=O)(=O)NC1CCN(C(=S)Nc2ccc3c(c2)C(=O)OC32c3ccc(O)cc3Oc3cc(O)ccc32)CC1 [Example 538, N-(3′,6′-dihydroxy-3-oxo-3H-spiro[2-benzofuran-1,9′-xanthen]-5-yl)-4-[({5-[(4-fluorophenyl)sulfonyl]-2-isopropylphenyl}sulfonyl)amino]piperidine-1-carbothioamide] |  |  | fold induction at 15 µM [7]: 2.4; fold induction at 15 µM [8]: 1.1
Cc1ccc(S(=O)(=O)c2ccc(F)cc2)cc1S(=O)(=O)NCCN(C)C [Example 172, N-[2-(dimethylamino)ethyl]-5-[(4-fluorophenyl)sulfonyl]-2-methylbenzenesulfonamide] | 1.9 | 1.1 | 
O=C(NCCNS(=O)(=O)c1cc(S(=O)(=O)c2ccccc2)ccc1C(F)(F)F)c1ccc(F)cc1 [Example 777, 4-Fluoro-N-[2-({[5-(phenylsulfonyl)-2-(trifluoromethyl)phenyl]sulfonyl}amino)ethyl]benzamide] |  |  | fold induction at 10 µM: 1.1
O=S(=O)(NC1CCOCC1)c1cc(S(=O)(=O)c2ccc(F)cc2)ccc1Cl [Example 622, 2-chloro-5-[(4-fluorophenyl)sulfonyl]-N-(tetrahydro-2H-pyran-4-yl)benzenesulfonamide] |  |  | fold induction at 15 µM [7]: 2.7; fold induction at 15 µM [8]: 1.1
O=S(=O)(NCCN1CCOCC1)c1cc(S(=O)(=O)c2ccccc2)ccc1Cl [Example 335, 2-chloro-N-(2-morpholin-4-ylethyl)-5-(phenylsulfonyl)benzenesulfonamide] | 2.2 | 1 | 
COC(=O)C(C)(C)NS(=O)(=O)c1cc(S(=O)(=O)c2ccccc2)ccc1Cl [Example 654, methyl N-{[2-chloro-5-(phenylsulfonyl)phenyl]sulfonyl}-2-methylalaninate] |  |  | fold induction at 15 µM [7]: 1; fold induction at 15 µM [8]: 1
COc1ccc(S(=O)(=O)c2ccccc2)cc1S(=O)(=O)NCCc1ccccc1 [Example 150, 2-methoxy-N-(2-phenylethyl)-5-(phenylsulfonyl)benzenesulfonamide] | 1.5 | 1.2 | 
N#CCNS(=O)(=O)c1cc(S(=O)(=O)c2ccccc2)ccc1Cl [Example 663, 2-chloro-N-(cyanomethyl)-5-(phenylsulfonyl)benzenesulfonamide] |  |  | fold induction at 10 µM: 1
CC(=O)c1cccc(S(=O)(=O)c2ccc(C)c(S(=O)(=O)NCCc3ccccn3)c2)c1 [Example 419, 5-[(3-acetylphenyl)sulfonyl]-2-methyl-N-(2-pyridin-2-ylethyl)benzenesulfonamide] | 2.5 | 1.3 | 
CCN(CC)CCCNS(=O)(=O)c1cc(S(=O)(=O)c2ccccc2)ccc1OC [Example 241, N-[3-(diethylamino)propyl]-2-methoxy-5-(phenylsulfonyl)benzenesulfonamide] | 1.8 | 1.1 | 
COC(=O)CCNS(=O)(=O)c1cc(S(=O)(=O)c2ccc(F)cc2)ccc1C [Example 160, methyl N-({5-[(4-fluorophenyl)sulfonyl]-2-methylphenyl}sulfonyl)-beta-alaninate] | 2.4 | 0.9 | 
Cc1ccc(S(=O)(=O)c2ccc(F)cc2)cc1S(=O)(=O)NCC(O)c1ccccn1 (stereo not shown) [Example 756, 5-[(4-fluorophenyl)sulfonyl]-N-(2-hydroxy-2-pyridin-2-ylethyl)-2-methylbenzenesulfonamide] |  |  | fold induction at 10 µM: 1.3
